Measurements taken from patent US7524862B2 (Boehringer Ingelheim International GmbH, priority 2004, dated 2009).

Molecular target: T1, human hMCH-1R (Homo sapiens, UniProt Q99705)
T1 construct: expressed in transfected cells; host or cells: CHO/Galpha16 cells (stably transfected), membranes
Assay: MCH-1 receptor binding test
Settings: membranes from CHO/Galpha16 cells stably transfected with hMCH-1R; 125I-MCH
Procedure: Membranes from CHO/Galpha16 cells stably transfected with human hMCH-1R are resuspended using a syringe (needle 0.6×25 mm) and diluted in test buffer (50 mM HEPES, 10 mM MgCl2, 2 mM EGTA, pH 7.00; 0.1% bovine serum albumin (protease-free), 0.021% bacitracin, 1 μg/mL aprotinin, 1 μg/mL leupeptin and 1 μM phosphoramidone) to a concentration of 5 to 15 μg/mL. […] After the incubation, the reaction is filtered using a cell harvester through 0.5% PEI treated fiberglass filters (GF/B, Unifilter Packard). The membrane-bound radioactivity retained on the filter is then determined after the addition of scintillator substance (Packard Microscint 20) in a measuring device (TopCount of Packard). […] The analysis of the concentration binding curve is carried out on the assumption of one receptor binding site.

T1 sequence (Q99705 whole entry): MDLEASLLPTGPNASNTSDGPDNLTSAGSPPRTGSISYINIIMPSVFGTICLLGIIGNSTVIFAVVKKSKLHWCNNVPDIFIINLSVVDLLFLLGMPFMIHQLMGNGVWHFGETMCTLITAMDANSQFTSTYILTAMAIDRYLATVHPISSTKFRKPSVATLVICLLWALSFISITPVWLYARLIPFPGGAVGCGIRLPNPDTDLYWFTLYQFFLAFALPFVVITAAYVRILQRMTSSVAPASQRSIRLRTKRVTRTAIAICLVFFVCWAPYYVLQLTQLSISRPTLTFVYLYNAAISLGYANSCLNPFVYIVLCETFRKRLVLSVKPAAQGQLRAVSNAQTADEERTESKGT

| IC50 [nM] | Compound |
| --- | --- |
| 246 | Cc1cc(N2CCC(C)CC2)nc2ccc(C#Cc3ccc(-c4ccc(Cl)cc4)cn3)cc12 [Example 1.43, 6-[5-(4-chlorophenyl)pyridin-2-ylethynyl]-4-methyl-2-(4-methylpiperidin-1-yl)quinoline] |
| 6.8 | Cc1cc(NC(C)C)nc2ccc(C#Cc3ccc(-c4ccc(Cl)cc4)cn3)cc12 [Example 1.44, {6-[5-(4-chlorophenyl)pyridin-2-ylethnyl]-4-methylquinolin-2-yl}isopropylamine] |
